Measurements: paper PMC4492822 (EMBO Molecular Medicine, 2015)

Columns and labels:
[1] = tested on: A549, H1299, H23, and H460; assay: MTS viability assay, 72 h, lines with high DDX3 expression; format: cell-based; details: range over A549, H1299, H23, H460
Method: Proliferation was determined by counting cancer cells over time. Cells were seeded at 7.5 × 10^4 cells/well and counted daily with a TC10 automated cell counter (Bio-Rad, Hercules, CA, USA) at least three times. Viability of cancer cells was determined by MTS assay (CellTiter 96® AQueous One Solution, Promega, Madison, WI, USA) as described by the manufacturer. Briefly, 800–2,000 cells were allowed to attach overnight in a 96-well plate, treated with different concentrations of RK-33 and kept for 72 h. MTS reagent was kept for 2 h. Each experiment was repeated a minimum of three independent times.

[2] = Toxicology in SCID mice (histopathology, blood values); format: in vivo
Method: Figure 5 Toxicity studies of RK-33 in mice • Following injection of 20 mg/kg of RK-33, twice a week for 7 weeks, extensive histopathological examination was carried out following necropsy. Identical patterns were observed both in the control and in the treated mice (n = 2). Samples were stained with H&E. Scale bar is 50 μm. • Pharmacokinetics of RK-33 in SCID mice at various time intervals. Results are mean ± SD from 5 mice. LC-MS/MS method was used to determine concentration of RK-33 in mouse plasma and tissue. • Liquid chromatography–mass spectrometry (LC-MS/MS) analysis was performed to determine different metabolites of RK-33. • RK-33 and metabolites characterized by LC-MS/MS in human liver microsomes using the scan mode function of the LC-MS/MS. • HAPI cells were treated with RK-33 (10 μM), HA14-1 (25 μM), or DMSO vehicle, followed by oligomycin (oligo, 0.5 μg/ml), FCCP (3 μM), and antimycin A (AA, 1 μM) while oxygen consumption rate (OCR) was measured. Pyruvate (10 mM) was added in combination with FCCP to ensure that substrate supply was not rate-limiting for maximal OCR. Data are mean ± SD from 2 to 3 wells and representative of independent experiments performed with two different HAPI passages. OCR is baseline-normalized to the point prior to drug or vehicle addition. • HAPI microglial cells were incubated for 1 h in glucose-free XF24 assay medium that was supplemented with 2-deoxyglucose (50 mM) and pyruvate (10 mM). RK-33 (10 μM), oligomycin (0.5 μg/ml), or vehicle control was additionally present as indicated. Results are mean ± SD from 12 replicates pooled from experiments using two consecutive passages. Significance was assessed by two-sided, unpaired t-test. TEXT PRINTED IN THE PICTURE: (B) RK-33: t½e (hours): 7.31 ± 1.16 (Organ: plasma); t½e (hours): 6.70 ± 1.17 (Organ: kidney); t½e (hours): 10.01 ± 1.24 (Organ: liver); t½e (hours): 8.92 ± 1.45 (Organ: spleen); t½e (hours): 7.48 ± 1.18 (Organ: breast); t½e (hours): 7.25 ± 1.25 (Organ: lung); t½e (hours): 6.72 ± 1.23 (Organ: brain); t½e (hours): 6.25 ± 1.19 (Organ: muscle) | (C) RK-33: Mouse Microsomes + NADPH: 100% (Inc. Time: 0); Mouse Microsomes - NADPH: 100% (Inc. Time: 0); Human Microsomes + NADPH: 100% (Inc. Time: 0); Human Microsomes - NADPH: 100% (Inc. Time: 0); Mouse Microsomes + NADPH: 11% (Inc. Time: 30); Mouse Microsomes - NADPH: 80% (Inc. Time: 30); Human Microsomes + NADPH: 49% (Inc. Time: 30); Human Microsomes - NADPH: 85% (Inc. Time: 30); Mouse Microsomes + NADPH: 4% (Inc. Time: 60); Mouse Microsomes - NADPH: 69% (Inc. Time: 60); Human Microsomes + NADPH: 35% (Inc. Time: 60); Human Microsomes - NADPH: 73% (Inc. Time: 60) DOUBTS OF THE COPYIST ABOUT THIS PICTURE: Panel C prints no substance label of its own; RK-33 is taken from the other panels of the same picture / Panel C prints no unit for Inc. Time / Panel B, column head: read as t½e (hours), small print; the sign after t may be 1/2 e / Panel D (retention times and [M+H]+ of RK-33 and peaks M1-M3) was left out as LC-MS data

H1299 = assay: Annexin V / PI flow cytometry, 72 h; format: cell-based
Method: (§1) Histograms depicting early apoptosis (Annexin V positive) and late apoptosis (PI positive) in cells treated with the indicated amounts of RK-33. Cells were either treated with DMSO (controls) or IC50 and IC75 amounts of RK-33. After 72 hours incubation, cells were harvested and stained for Annexin V and PI and analyzed by flow cytometry.

H196 = assay: Annexin V / PI flow cytometry, 72 h; format: cell-based
Method: as §1

H23 = assay: Annexin V / PI flow cytometry, 72 h; format: cell-based
Method: as §1

H358 = assay: Annexin V / PI flow cytometry, 72 h; format: cell-based
Method: as §1

H460 = assay: Annexin V / PI flow cytometry, 72 h; format: cell-based
Method: as §1

[3] = 7.5 uM, lower line, first value
[4] = 7.5 uM, lower line, second value

Substance: diimidazo[4,5-d:4′,5′-f]-[1,3]diazepine [RK-33]
- IC50 [1]: 4.4 to 8.4 µM
- toxicity at the dose used ([2]; SCID mice): non-toxic
- ALP ([2]; mouse, in vivo): 69 ± 5 U/l
- ALT ([2]; mouse, in vivo): 72 ± 34 U/l
- AST ([2]; mouse, in vivo): 224 ± 152 U/l
- Albumin ([2]; mouse, in vivo): 3.05 ± 0.05 g/dL
- Amylase ([2]; mouse, in vivo): 905 ± 42 U/l
- BUN ([2]; mouse, in vivo): 22 ± 2.0 mg/dL
- Calcium ([2]; mouse, in vivo): 9.1 ± 0.2 mg/dL
- Cholesterol ([2]; mouse, in vivo): 120 ± 1 mg/dL
- Creatinine ([2]; mouse, in vivo): 0.35 ± 0.05 mg/dL
- Glucose ([2]; mouse, in vivo): 166 ± 4 mg/dL
- Hb ([2]; mouse, in vivo): 14.7 ± 0.6 g/dL
- MCV ([2]; mouse, in vivo): 55.1 ± 1.3 fL
- RBC ([2]; mouse, in vivo): 10.01 ± 0.77 M/μl
- Thrombocytes ([2]; mouse, in vivo): 746 ± 185 K/μl
- Triglycerides ([2]; mouse, in vivo): 215 ± 14 mg/dL
- WBC ([2]; mouse, in vivo): 5.83 ± 2.61 K/μl
- cells in gate of Annexin V/PI plot (H1299; [3]): 40.4
- cells in gate of Annexin V/PI plot (H1299; [4]): 12.6
- cells in gate of Annexin V/PI plot (H1299; 7.5 uM, upper value of panel): 33.7
- cells in gate of Annexin V/PI plot (H1299; 13 uM, lower line, first value): 36
- cells in gate of Annexin V/PI plot (H1299; 13 uM, lower line, second value): 7.3
- cells in gate of Annexin V/PI plot (H1299; 13 uM, upper value of panel): 41.5
- cells in gate of Annexin V/PI plot (H196; 3 uM, lower value of panel): 43.3
- cells in gate of Annexin V/PI plot (H196; 3 uM, upper value of panel): 52.7
- cells in gate of Annexin V/PI plot (H196; 4.5 uM, lower value of panel): 36.6
- cells in gate of Annexin V/PI plot (H196; 4.5 uM, upper value of panel): 60.9
- cells in gate of Annexin V/PI plot (H23; 5 uM, lower line, first value): 30.3
- cells in gate of Annexin V/PI plot (H23; 5 uM, lower line, second value): 28.2
- cells in gate of Annexin V/PI plot (H23; 5 uM, upper value of panel): 39
- cells in gate of Annexin V/PI plot (H23; [3]): 17.1
- cells in gate of Annexin V/PI plot (H23; [4]): 18.8
- cells in gate of Annexin V/PI plot (H23; 7.5 uM, upper value of panel): 60.4
- cells in gate of Annexin V/PI plot (H358; 11 uM, lower line, first value): 26.6
- cells in gate of Annexin V/PI plot (H358; 11 uM, lower line, second value): 31.9
- cells in gate of Annexin V/PI plot (H358; 11 uM, upper value of panel): 34.9
- cells in gate of Annexin V/PI plot (H358; 16 uM, lower line, first value): 26.8
- cells in gate of Annexin V/PI plot (H358; 16 uM, lower line, second value): 26.5
- cells in gate of Annexin V/PI plot (H358; 16 uM, upper value of panel): 40.8
- cells in gate of Annexin V/PI plot (H460; 6.5 uM, lower value of panel): 62
- cells in gate of Annexin V/PI plot (H460; 6.5 uM, upper value of panel): 25.6
- cells in gate of Annexin V/PI plot (H460; 9 uM, lower value of panel): 50.1
- cells in gate of Annexin V/PI plot (H460; 9 uM, upper value of panel): 34.7
